This is an account of results in a melting point compilation (Tetko et al.; mined from patent text by program, amines drawn as free bases though some values may be those of a salt).

Where only a bound is given, the exact number is not on record here.

The compound `CC(=O)c1ccc2c(c1)Cc1cccc(C(C)=O)c1-2` showed a melting point of 128 to 129 °C. For the compound `O=c1[nH]c2c(c3nc(-c4ccccc4F)nn13)CCCCC2`, the melting point was 257 to 259 °C. `CCOC(=O)CCCCCCC1C(=O)NC(=O)N1CCC(=O)C1CCCCC1` (stereo not given) had a melting point of 77.5 to 78.5 °C. Then `CCOC(=O)c1cc2c(C)noc2nc1C(=O)OCC`, with 95 to 99 °C.

`O=C(Oc1ccc2c(=O)cc(N3CCOCC3)oc2c1)c1ccccc1` registered a melting point of 204 to 206 °C. In the case of `CC(C)C[C@H](NC(=O)[C@@H]1CCCN1C(=O)[C@@H](N)CSCc1ccccc1)C(=O)NCC(N)=O`, the melting point was in the range of 130 to 134 °C.

`Cc1nc2c3c(c(C(=O)N(C)CC(C)O)cc2n1C)CCC1(Cc2ccccc2C1)N3` (stereo not given) gave a melting point of 258 to 259 °C. `CCCc1nc2c(N)nc3cc(-c4cccc(C(=O)NC5CC5)c4)ccc3c2s1`: the melting point was 251 to 254 °C. Turning to `FC(F)(F)c1ccc(CN2CCNc3ncc(I)cc32)o1`, the melting point lay within 153 to 154 °C. On to `CSCCCCC(c1cc(F)ccc1F)S(=O)(=O)c1ccc(Cl)cc1` (stereo not given), for which the melting point was in the range of 103 to 106 °C.

For the compound `Cc1cccc(C)c1NC(=O)c1ccc(CN2C(=O)C3(COc4cc5c(cc43)CCO5)c3ccccc32)cc1` (stereo not given), the melting point is greater than 250 °C.

The compound `CCCCNc1cccc2c1C(=O)c1cccc(NCCCC)c1C2=O` displayed a melting point of 152 to 153 °C. Then `C=CCc1cc(C(=O)OC)ccc1-c1ccc(OC)c(OC)c1`, with 99 to 103 °C; and `CCOC(=O)CNc1ccc2c3c(n(CCCNC(=O)OC(C)(C)C)c(=O)c2c1)-c1ccccc1C3=O`, with 203 to 204 °C; and `Cc1cc2c(N3CCCC3C)ccc(C#N)c2o1` (stereo not given), with 78 to 80 °C. Then `Cc1cc(-c2cc(C(F)F)n3ncc(C(=O)Nc4cccc(S(C)(=O)=O)c4)c3n2)ccc1Cl`, with 270 °C; and `CC(C)OC(=O)c1cn(Cc2c(F)cccc2F)c2nc(-c3ccc(N)cc3)c(CN(C)Cc3ccccc3)n2c1=O`, with 168 to 170 °C; and `COCc1cnc2c(NC(=O)c3c(Cl)cccc3Cl)cccc2c1Cl`, with 177 °C. `O=C(NC1N=C(c2ccccc2)c2ccccc2NC1=O)c1ccc(-c2ccccc2)cc1` (racemic): the melting point lay within 274 to 276 °C. Then `Cn1c(-c2ccc(C(O)(C(F)(F)F)C(F)(F)F)cc2)cc2ccccc2c1=O`, with 265 to 266 °C. Then `O=C(Nc1ccc(C(=O)N2Cc3ccccc3Cc3ccccc32)cc1)c1ccccc1-c1ccccc1`, with 224 to 225 °C. Compound `CCOC1(c2ccccc2)CCN(C)CC1O` (stereo not given) showed a melting point of 145 to 146 °C. The value for `CCSc1cccc2c1CC(=O)N2` was 143 to 144 °C; that for `Brc1ccc2c3c(cccc13)C(NCCCCCCCCCCCCn1ccnc1)=N2` was 111 to 116 °C; that for `COC(=O)c1cc(Oc2c(Cl)cc(C(F)(F)F)cc2Cl)n[nH]1` was 114 to 116 °C. The value for `COc1cc(N)c2ncccc2c1OCC(F)(F)F` was 91 to 94 °C.

For `O=c1c2ccccc2nc(CCl)n1-c1ccccc1`, the melting point is 152 to 153 °C. Then `CCOC(=O)CNC(=O)N1CCn2c(c(C(N)=O)c(Cl)c2-c2ccccc2)C1`, with 94 to 97 °C; and `Clc1cc2nc(Cl)n(Cc3ccccc3)c2cc1Cl`, with 175 to 176 °C.

The compound `COc1ccc(C[C@H]2NC(=O)O[C@H]2c2ccc(F)cc2)cc1` (racemic) yielded a melting point of 125 to 126 °C. The compound `COc1ccc2c(c1)C(=O)c1nc3ccccc3c(=O)n1-2` had a melting point of 268 to 269 °C.

Consider `O=Cc1cc(Br)ccc1C(=O)O`, for which the melting point turned out to be 202 °C. `CCOC(=O)/C=C/c1nc(COc2ccc(COc3nn(-c4ccccc4)cc3/C=C/P(=O)(OCC)OCC)cc2OC)c(C)o1` came in with a melting point of 130 to 131 °C. Then `O=[N+]([O-])c1ccc2c(c1)CS(=O)(=O)N2CCF`, with 142 to 144 °C. Consider `Cc1ccccc1N1CCN(S(=O)(=O)CC23CCC(CC2=O)C3(C)C)CC1` (stereo not given), for which the melting point was 112 to 114 °C.

As for `COC(=O)[C@H](Cc1c[nH]c2ccccc12)NC(=O)CCC(=O)[C@H](Cc1ccccc1)NC(=O)c1ccccc1`, the melting point was 88 to 90 °C.

With `CC(=O)N1CCC(CC(=O)O)CC1`, the melting point was 124 °C.

`O=c1[nH]c2cc3[nH]c(=O)oc3cc2[nH]1` had a melting point greater than 360 °C. The value for `CSc1cc2ccc(-c3ccccc3)cc2cc1O` was 149 to 150 °C; that for `COc1ccc(C=O)c(O)c1Cl` was 114 to 117 °C.

`O=C1NC(=O)c2c1c(-c1ccccc1Cl)cc1c2c2cc(O)ccc2n1CC(O)CO` (stereo not given) showed a melting point of 305 to 309 °C. Compound `CN1CC(C(=O)CO)CC2c3cccc4[nH]cc(c34)CC21` (stereo not given) had a melting point of 202 to 203 °C. Then `CC(S(N)(=O)=O)S(=O)(=O)N1CCCC1` (stereo not given), with 78 to 80 °C; and `CCCCNC(=S)N1CCc2cc(S(=O)(=O)N3CC(c4ccccc4)NC3=O)ccc21` (stereo not given), with 186 to 188 °C; and `COc1ccc(CSc2cc(OC)c(OC)c(OC)c2)cc1`, with 65 to 67 °C.

Compound `CSC1CCC2C3CCC4=CC(=O)C=CC4(C)C3(F)C(O)CC12C` (stereo not given) returned a melting point of 235 to 236 °C. Then `COC(=O)C(C)(C)S(=O)(=O)N1CCC(c2ccc(-c3cccc(OCCO)n3)c(C)c2)CC1`, with 108 to 111 °C; and `N#Cc1cnc2cc3c(cc2c1Nc1ccc(Oc2ccccc2)cc1)ncn3CCN1CCOCC1`, with greater than 260 °C; and `CCCCC(=O)N(Cc1ccc(-c2ccccc2-c2nc(=O)s[nH]2)cc1)c1sccc1C(=O)O`, with 148 to 149 °C.

For `CC(=O)N[C@@H](CSc1ccccc1[N+](=O)[O-])C(=O)O`, the melting point lay within 175 to 176 °C. The value for `CSc1cc2c(cc1C(F)(F)F)N(C(=O)Nc1cccc(C(=O)NN3CCC(N(C)C)C3)c1)CC2` (stereo not given) was 114 to 116 °C.

In the case of `CCOC(=O)C1=C(C)NC(SCc2ccccc2)=NC1c1cccc([N+](=O)[O-])c1` (stereo not given), the melting point lay within 129 to 130 °C. Then `CC(C)c1ccccc1S(=O)(=O)c1ccc(O)cc1`, with 160 °C; and `CCOC(=O)C(C#N)=Cc1c(Cl)n(Cc2ccc(OC)cc2)c2ccccc12`, with 126 to 128 °C.

For the compound `Cn1cc(C2=C(c3cn(CCCS)c4ccccc34)C(=O)NC2=O)c2ccccc21`, the melting point fell in the range of 155 to 157 °C.

Compound `CC(C)(C)OC(=O)Nc1ccc(C2=CCN(C(=O)OC(C)(C)C)CC2)cc1[N+](=O)[O-]` yielded a melting point of 85 to 87 °C. Then `N#Cc1cc2c(Cl)ncnc2s1`, with 185 to 190 °C; and `CS(=O)c1csc(NC(=O)c2ccccc2O)n1` (stereo not given), with 240 °C.

Regarding `Oc1cccc(C(F)(F)F)n1`, the melting point is 117 to 118 °C.

Regarding `Cc1cc(C2=NOC(c3cc(Cl)cc(Cl)c3)(C(F)(F)F)C2)ccc1C(=O)Nc1ncccn1` (stereo not given), the melting point lay in the range of 122 to 124 °C. For the compound `COc1cc2c(c(N(C(C)=O)C(C)=O)c1)CC(C)O2` (stereo not given), the melting point is 56 to 57 °C. The value for `CCCNC(C=Cc1ccccc1Cl)=NC#N` was 134 to 136 °C; that for `Cc1c(C)c2ccc(OCCCN3CCN(Cc4ccc(Cl)cc4)CC3)cc2[nH]c1=O` was 143 to 144 °C; that for `CC1(C)C2CC[C@]1(C)C(=O)C(C(=O)Nc1ccc(Cl)c(C(F)(F)F)c1)C2=O` (stereo not given in full) was 118 to 120 °C. As to `C=CCO[C@@H]1CC(C(=O)O)=C[C@@H](OC(C)C)[C@@H]1NC(C)=O`, the melting point was in the range of 70 to 71 °C. Then `O=C(c1ccc(-c2ccccc2)cc1)N1CCCCc2sccc21`, with 164 to 166 °C; and `Cc1ccc2c(c1)S/C(=C(/N)c1ccccc1)C2=O`, with 166 to 167 °C.

Take `C=CC(=O)OCCOc1ccc(Cl)c2c1Sc1ccccc1C2`: the melting point lay in the range of 90 to 91 °C. For the compound `N#Cc1ccccc1NC(=O)c1snc(Cl)c1Cl`, the melting point was 191 to 193 °C.

Turning to `NS(=O)(=O)c1ccc(-n2nc(C(F)(F)F)cc2-c2ccc(-c3ccco3)cc2)cc1Cl`, the melting point amounted to 193 °C. `C=CCC1Cn2c(ncc(C(=O)O)c2=O)-c2cc(OC)ccc21` (stereo not given) registered a melting point of 128 to 130 °C. The value for `O=c1[nH]c2c3ccccc3ccc2n(C2CC2)c1=O` was 307 °C; that for `COc1cccn2c(=O)c(CCOS(C)(=O)=O)c(C)nc12` was 180 °C. Then `Cn1cc(-c2ccc3nc(NC(=O)c4ccc(C(C)(C)C)nc4)cn3c2)cn1`, with 228 to 230 °C.

Compound `O=S1(=O)N=CN(C2CCCCCC2)c2cc(Cl)c(Cl)cc21` had a melting point of 222 to 224 °C.

The compound `CN1CCN(Cc2ccccc2F)C(C2=NCCN2)C1` (stereo not given) yielded a melting point of 160 to 162 °C.

Consider `CC(C)CCC(=O)N[C@H]1CC[C@H](CCN2CCC(c3cccc4c3CCO4)CC2)CC1`, for which the melting point was 188 °C. Then `O=C(O)c1cc(=O)c2cc(O)c(=O)ccc2[nH]1`, with 258 to 260 °C. Then `CC(C)(C)OC(=O)NCCCCC(N)C(=O)Nc1ccccc1` (stereo not given), with 72 to 74.5 °C; and `COCCCOc1cc(C[C@@H](CBr)C(C)C)ccc1OC`, with 52 to 53 °C; and `CC(=O)Nc1ccc(F)c(-c2ccncc2)n1`, with 254 to 256 °C. `COc1cccc2c(CN3CC=C(CCc4ccccc4)CC3)c[nH]c12` had a melting point of 131 to 133 °C. Take `ClCSc1n[nH]c(C(c2ccccc2)(c2ccccc2)c2ccccc2)n1`: the melting point lay in the range of 121 to 122 °C. Then `O=C(c1ccccc1)c1ccc(O)c(Cl)c1Cl`, with 123 to 126 °C; and `COC(=O)C(C)Oc1ccc(NC(=O)CCCCCOCc2ccccc2)cc1` (stereo not given), with 73 to 76.5 °C; and `Oc1cccc(CCCn2ccnn2)c1`, with 74 to 75 °C.

`O=C1CCN(c2ccc(C=C3SC(=O)NC3=O)cc2Br)CC1` gave a melting point greater than 210 °C. The value for `COCCOc1ccc2ccc(N)nc2n1` was 176 °C; that for `NC(=O)c1cccc(C=CC(=O)O)c1` was greater than 260 °C; that for `Cc1nc(C(O)(c2ccsc2)C(F)(F)F)sc1C` (stereo not given) was 90 to 92 °C.

One may read the melting point as the temperature of the solid-liquid transition.
